Where “and” joins values, the source holds several entries; their conditions need not be identical. Equal values may be shown once. Entries after “also recorded” stand apart in the source; their conditions may differ. Marks after values point to notes of the source that are not given here. Each block holds one compound with its values, some of them ahead of it.
Legend:
[1] = biological target: T1, membrane-bound human MAO-A (Homo sapiens, UniProt P21397); experiment: MAO-A inhibition, H2O2/horseradish peroxidase coupled fluorescence assay with tyramine; type: biochemical; conditions: for inhibition at 10 µM: read-out: % inhibition at 10 μM hMAO-A; for IC50 / IC50 (μM) hMAO-A: tyramine at 2 × KM, seven concentrations 0.01–300 µM, ± s.d., two independent experiments; for IC50: read-out: IC50 (μM) hMAO-A; for selectivity MAO-A versus MAO-B: from IC50 values on MAO-A and MAO-B; for inhibition of MAO-A compared with MAO-B in the screen: screen at 10 µM
T1 sequence (P21397 1-527): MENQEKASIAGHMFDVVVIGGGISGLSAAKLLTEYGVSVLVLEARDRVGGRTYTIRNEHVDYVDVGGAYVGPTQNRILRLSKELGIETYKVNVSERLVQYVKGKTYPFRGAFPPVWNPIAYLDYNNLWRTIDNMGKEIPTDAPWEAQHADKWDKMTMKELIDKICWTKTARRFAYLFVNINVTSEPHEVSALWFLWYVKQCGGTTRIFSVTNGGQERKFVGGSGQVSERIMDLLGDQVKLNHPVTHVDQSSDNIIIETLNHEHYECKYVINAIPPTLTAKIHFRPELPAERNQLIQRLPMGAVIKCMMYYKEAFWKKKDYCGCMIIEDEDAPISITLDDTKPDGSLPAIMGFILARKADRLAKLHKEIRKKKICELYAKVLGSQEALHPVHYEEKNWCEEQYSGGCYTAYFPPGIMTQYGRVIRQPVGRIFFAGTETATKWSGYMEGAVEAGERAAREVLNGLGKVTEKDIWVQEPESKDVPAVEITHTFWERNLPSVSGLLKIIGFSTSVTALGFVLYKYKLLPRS
Experimental: (§1) Incomplete inhibition of activity could arise either from indirect effects on these enzymes or from the compounds acting as substrates at the highest concentrations.
(§2) The activity of MAO was determined using the coupled assay method of [41, 42] in which the product, H2O2, acts with horseradish peroxidase to convert 10-acetyl-3,7-dihydroxyphenoxazine to the fluorescent resorufin. […] The data were analysed using the equation for a three-parameter curve in Graphpad PRISM v. 4, and the % inhibition calculated from the top and bottom of the resulting curve.

[2] = biological target: T2, membrane-bound human MAO-B (Homo sapiens, UniProt P27338); experiment: MAO-B inhibition, H2O2/horseradish peroxidase coupled fluorescence assay with tyramine; type: biochemical; conditions: for maximum inhibition (%) hMAO-B: from dose–response curve, in parentheses after IC50, given if less than 95%; for inhibition at 10 µM: read-out: % inhibition at 10 μM hMAO-B, 10 μM compound, tyramine 0.32 mM (2 × KM), average of two independent experiments; for IC50 (μM) hMAO-B / IC50: tyramine at 2 × KM, seven concentrations 0.01–300 µM, ± s.d., two independent experiments; for IC50: read-out: IC50 (μM) hMAO-B
T2 sequence (P27338 1-520): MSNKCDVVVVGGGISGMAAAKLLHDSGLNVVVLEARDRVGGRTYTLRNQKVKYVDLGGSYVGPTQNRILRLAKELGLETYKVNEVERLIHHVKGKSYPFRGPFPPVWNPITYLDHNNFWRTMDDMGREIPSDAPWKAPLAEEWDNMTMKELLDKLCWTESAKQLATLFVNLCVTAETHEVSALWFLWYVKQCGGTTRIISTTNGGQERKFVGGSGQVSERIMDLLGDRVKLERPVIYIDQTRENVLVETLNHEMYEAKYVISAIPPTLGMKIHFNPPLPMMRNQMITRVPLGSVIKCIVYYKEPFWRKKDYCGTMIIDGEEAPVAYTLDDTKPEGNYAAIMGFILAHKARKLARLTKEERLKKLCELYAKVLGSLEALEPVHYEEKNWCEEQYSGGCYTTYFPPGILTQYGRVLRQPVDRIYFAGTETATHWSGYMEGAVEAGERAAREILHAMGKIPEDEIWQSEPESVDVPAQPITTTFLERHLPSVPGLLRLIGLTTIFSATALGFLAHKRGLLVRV
Experimental: as §1, §2

MAO-A = biological target: T3, MAO-A (Homo sapiens, UniProt P21397); experiment: Oxidation of compound by MAO-A in the standard coupled assay in the absence of tyramine; type: biochemical
T3 sequence (P21397 1-527): T1 sequence (P21397 1-527)
Experimental: Compound 6 in the screening assay with 10 µM inhibitor gave an increased rate of appearance of fluorescence indicating faster production of the product H2O2 (not the slower rate observed with other compounds that inhibit MAO activity).
Figure 3. Oxidation of 6 (squares) but not 12d (triangles) by MAO-A. The concentration of compound was varied in the standard assay coupled to the production of H2O2 but in the absence of the substrate tyramine.
The activity of MAO was determined using the coupled assay method of [41, 42] in which the product, H2O2, acts with horseradish peroxidase to convert 10-acetyl-3,7-dihydroxyphenoxazine to the fluorescent resorufin. […] For compounds that gave more than 30% inhibition, the IC50 was determined using seven concentrations of each compound (0.01–300 μM) with substrate at 2 × KM. […] The data were analysed using the equation for a three-parameter curve in Graphpad PRISM v. 4, and the % inhibition calculated from the top and bottom of the resulting curve.

[3] = 30 min preincubation, dilution ×100, increasing substrate concentration
[4] = 10 μM compound, tyramine 0.8 mM (2 × KM), average of two independent experiments

Compound: COc1ccc(C=NNC(=O)Cn2c(C)nc3ccccc3c2=O)cc1 [12c, N'-(4-Methoxybenzylidene)-2-(2-methyl-4-oxoquinazolin-3(4H)-yl)acetohydrazide]
inhibition at 10 µM [1, 4]: 5%
inhibition at 10 µM [2]: 21%
melting point: > 229 °C (dec.)

Compound: O=C(CN1C(=O)c2cc(Cl)ccc2NC1c1ccccc1)NN=Cc1ccc(O)cc1 (stereo not drawn) [5g, 2-(6-Chloro-4-oxo-2-phenyl-1,4-dihydroquinazolin-3(2H)-yl)-N'-(4-hydroxybenzylidene)acetohydrazide]
selectivity MAO-A versus MAO-B [1]: A-selective
inhibition at 10 µM [1, 4]: 22%
IC50 (μM) hMAO-A [1]: micromolar potency
IC50 [1]: 4.34 ± 1.31 µM
maximum inhibition (%) hMAO-B [2]: full inhibition
inhibition at 10 µM [2]: 36%
IC50 (μM) hMAO-B [2]: micromolar affinity
IC50 [2]: 11 ± 4 µM
melting point: 236 to 240 °C

Compound: Cc1nc2ccccc2c(=O)n1CC(=O)NN=Cc1ccccc1 [12a, N'-Benzylidene-2-(2-methyl-4-oxoquinazolin-3(4H)-yl)acetohydrazide]
inhibition at 10 µM [1, 4]: 6%
inhibition at 10 µM [2]: 26%
melting point: 242 to 245 °C

Compound: O=C(CN1C(=O)c2ccccc2NC1c1ccccc1)NN=Cc1ccccc1 (stereo not drawn) [5a, N'-Benzylidene-2-(4-oxo-2-phenyl-1,2-dihydroquinazolin-3(4H)-yl)acetohydrazide]
inhibition at 10 µM [1, 4]: 19%
IC50 (μM) hMAO-A [1]: micromolar potency
IC50 [1]: 4.4 µM and 6 µM and 6.2 µM
maximum inhibition (%) hMAO-B [2]: full inhibition
inhibition at 10 µM [2]: 55%
IC50 (μM) hMAO-B [2]: micromolar affinity
IC50 [2]: < 10 µM and 10 µM
melting point: 223 to 225 °C

Compound: COc1ccccc1C1Nc2ccc(Cl)cc2C(=O)N1CC(=O)NN (stereo not drawn) [4d, 2-(6-Chloro-2-(2-methoxyphenyl)-4-oxo-1,2-dihydroquinazolin-3(4H)-yl)acetohydrazide]
inhibition at 10 µM [1, 4]: 0%
inhibition at 10 µM [2]: 28%
melting point: 149 to 151 °C

Compound: COC(=O)CN1C(=O)c2cc(Cl)ccc2NC1c1ccccc1OC (stereo not drawn) [3d, Methyl 2-(6-chloro-2-(2-methoxyphenyl)-4-oxo–1,2-dihydroquinazolin-3(4H)-yl)acetate]
inhibition at 10 µM [1, 4]: 0%
inhibition at 10 µM [2]: 27%
melting point: 152 to 154 °C

Compound: COC(=O)CN1C(=O)c2cc(Cl)ccc2NC1c1ccc(OC)cc1 (stereo not drawn) [3c, Methyl 2-(6-chloro-2-(4-methoxyphenyl)-4-oxo–1,2-dihydroquinazolin-3(4H)-yl)acetate]
inhibition at 10 µM [1, 4]: -3%
inhibition at 10 µM [2]: 10%
melting point: 148 to 150 °C

Compound: COC(=O)CN1C(=O)c2cc(Cl)ccc2NC1c1ccccc1 (stereo not drawn) [3b, Methyl-2-(6-chloro-4-oxo-2-phenyl-1,2-dihydroquinazolin-3(4H)-yl)acetate]
inhibition at 10 µM [1, 4]: 10%
inhibition at 10 µM [2]: 34%
melting point: 162 to 163 °C

Compound: COc1cc(C=NNC(=O)CN2C(=O)c3ccccc3NC2c2ccccc2)ccc1O (stereo not drawn) [5d, N'-(4-Hydroxy-3-methoxybenzylidene)-2-(4-oxo-2-phenyl-1,2-dihydroquinazolin-3(4H)yl)acetohydrazide]
selectivity MAO-A versus MAO-B [1]: threefold selective for MAO-A
inhibition at 10 µM [1, 4]: 71%
inhibition of MAO-A compared with MAO-B in the screen [1]: equal inhibition of MAO-A and MAO-B; also recorded: equally inhibited
IC50 (μM) hMAO-A [1]: micromolar potency
IC50 [1]: 0.27 ± 0.06 µM
maximum inhibition (%) hMAO-B [2]: full inhibition
inhibition at 10 µM [2]: 70%
IC50 (μM) hMAO-B [2]: micromolar affinity
IC50 [2]: 0.75 ± 0.18 µM
melting point: 252 to 255 °C

Further lines, with some results ahead:

mechanism of inhibition of MAO-A [1, 3]: competitive inhibition
maximum inhibition (%) hMAO-A ([1]; from dose–response curve, in parentheses after IC50, given if less than 95%): 32%
inhibition at 10 µM [1, 4]: 27%
IC50 [1]: 1.41 ± 0.47 µM
mechanism of inhibition of MAO-B [2, 3]: competitive inhibition
maximum inhibition (%) hMAO-B [2]: full inhibition
inhibition at 10 µM [2]: 52%
IC50 (μM) hMAO-B [2]: micromolar affinity
IC50 [2]: 3.62 ± 0.69 µM
melting point: 258 to 260 °C
Compound: COc1cc(C=NNC(=O)Cn2c(C)nc3ccccc3c2=O)ccc1O [12d, N'-(4-Hydroxy-3-methoxybenzylidene)-2-(2-methyl-4-oxoquinazolin-3(4H)-yl)acetohydrazide]

inhibition at 10 µM [1, 4]: 10%
inhibition at 10 µM [2]: 19%
melting point: 266 to 270 °C
Compound: O=C(CN1C(=O)c2cc(Cl)ccc2NC1c1ccccc1)NN=Cc1ccccc1 (stereo not drawn) [5e, N'-Benzylidene-2-(6-chloro-4-oxo-2-phenyl-1,4-dihydroquinazolin-3(2H)-yl)acetohydrazide]

inhibition at 10 µM [1, 4]: 0%
inhibition at 10 µM [2]: 27%
melting point: 159 to 160 °C
Compound: COc1ccc(C2Nc3ccc(Cl)cc3C(=O)N2CC(=O)NN)cc1 (stereo not drawn) [4c, 2-(6-Chloro-2-(4-methoxyphenyl)-4-oxo-1,2-dihydroquiazolin-3(4H)-yl)acetohydrazide]

inhibition at 10 µM [1, 4]: 6%
inhibition at 10 µM [2]: 31%
melting point: 184 to 185 °C
Compound: NNC(=O)CN1C(=O)c2cc(Cl)ccc2NC1c1ccccc1 (stereo not drawn) [4b, 2-(6-Chloro-4-oxo-2-phenyl-1,2-dihydroquinazolin-3(4H)-yl)acetohydrazide]

Vmax for oxidation by MAO-A as % of the Vmax for tyramine (MAO-A; same conditions, tyramine run in parallel): 77%
% inhibition at 10 μM hMAO-A [1, 4]: none
IC50 (μM) hMAO-A [1]: (rate increases)^c
inhibition at 10 µM [2]: 12%
IC50 [2]: 9 ± 2.3 µM
melting point: 257 to 259 °C
Compound: COc1cc(/C=N/NC(=O)CNC(=O)c2cc(Cl)ccc2/N=C/c2ccccc2)ccc1O [compound 6, 2-(((E)-benzylidene)amino)-5-chloro-N-(2-(2-((E)-4-hydroxy-3-methoxybenzylidene)hydrazinyl)-2-oxoethyl)benzamide]
H2O2 production / oxidation by MAO-A in the absence of the normal substrate (MAO-A; absence of tyramine): gave a measurable rate of H2O2 production

inhibition at 10 µM [1, 4]: 6%
IC50 (μM) hMAO-A [1]: none
inhibition at 10 µM [2]: 36%
IC50 [2]: 83 µM
melting point: 230 to 232 °C
Compound: O=C(CN1C(=O)c2ccccc2NC1c1ccccc1)NN=Cc1ccc(O)cc1 (stereo not drawn) [5b, N'-(4-Hydroxybenzylidene)-2-(4-oxo-2-phenyl-1,2-dihydroquinazolin-3(4H)-yl)acetohydrazide]

inhibition at 10 µM [1, 4]: 16%
inhibition at 10 µM [2]: 16%
IC50 [2]: > 100 µM
melting point: 192 to 195 °C
Compound: Cc1nc2ccccc2c(=O)n1CC(=O)NN=Cc1ccc(O)cc1 [12b, N'-(4-Hydroxybenzylidene)-2-(2-methyl-4-oxoquinazolin-3(4H)-yl)acetohydrazide]
inhibition of MAO-A compared with MAO-B in the screen [1]: equal inhibition of MAO-A and MAO-B; also recorded: equally inhibited

Reference: publication PMC7211837, “Design, synthesis, molecular modelling and in vitro screening of monoamine oxidase inhibitory activities of novel quinazolyl hydrazine derivatives” (Royal Society Open Science, 2020)
